Results as given in US5276019A, “Inhibitors for replication of retroviruses and for the expression of oncogene products” (The United States of America as represented by the …, priority 1988, dated 1994).
Entries after “also recorded” stand apart in the source; their conditions may differ. Oligonucleotides are written 5' to 3', each unit as a sugar letter and its base; * is a phosphorothioate linkage, no mark a phosphodiester; rarer units and linkages stand in square brackets, end groups in braces. Plain capitals give the bases only. d = 2'-deoxy (DNA)

Legend:
Stability in human serum = type: in vitro ADME; conditions: 31P NMR
[1] = Stability in in vitro test media followed by 31P NMR; type: in vitro ADME
Source text: The phosphorothioate oligodeoxynucleotides of the present invention have suitable chemical characteristics, namely, the ability to hybridize with complementary DNA/mRNA under physiological conditions, and better solubility properties relative to methylphosphonates. Moreover, the thioesters are as soluble in biological media as the parent compounds.
Thus, it is believed that it is mainly the relative resistance of the phosphorothioate analogs to nucleases that preserves them relative to n-ODNs, and allows them to reach and remain at their target site. This was supported in relation to the media used in the in vitro test system by following the 31P NMR spectra of the n-ODN-1 and S-ODN-1 compounds as a function of time.

[2] = test system: HTLV-IIIB virus (HIV) in ATH8 cells; assay: HIV cytopathic effect inhibition in ATH8 cells; type: cell-based; conditions: for anti-HIV activity / protection against cytopathic effect: ATH8 cells
Procedure: Because it is possible that inter-assay variation may create an inappropriate comparison of antiviral activity among agents, experiments were performed simultaneously to make more precise comparisons.
After a number of days in culture, generally 7-10 days, either substantial cell death due to HIV infection (HIV cytopathic effect) or the protective effect of oligos against the cytopathicity of HIV was observed.

gamma-interferon = assay: Induction of gamma-interferon in culture supernatant; type: cell-based
Source text: Another mechanism which should be considered is induction of interferon production such as that proposed for phophorothioate analogs of poly-r(I-C). […] Also, since there are no data to support the concept that phosphorothioate internucleotide linkages have a thiol character, and can thus form disulfides, the mechanism of action would likely be different from that proposed for antiviral polynucleotides having thiolated bases such as 5-mercapto-cytosine or -uracil.

[3] = test system: de novo HIV DNA synthesis; assay: Southern blot analysis of de novo HIV DNA synthesis in ATH8 cells; type: cell-based
Source text: Target cells (1×10^7 ATH8 cells) were pretreated with or without S-dC28 at various concentrations for sixteen hours, then treated with Polynrene, exposed to HIV (500 virus particles per cell), resuspended, and cultured in the presence or absence of S-dC28. On days 4 and 7 following the exposure to the virus, high molecular weight DNA was extracted, digested with Asp718 (a Kpn I isoschizomer from Boehringer-Mannheim, Indianapolis, Ind.), and subjected to Southern blot analysis hybridized with a labelled insert of molecular clone of the env region of HTLV-III (BH10) containing a 1.3 Kb Bgl II fragment.
On days 4 and 7 following the exposure to the virus, a substantial amount of viral DNA was detected by Southern blot analysis without antiviral agents.
On day 4, shown in lanes A-E, and day 7, shown in lanes F-J, following exposure to the virus, high molecular weight DNA was extracted. Lanes A and F contain DNA from ATH8 cells that were exposed to the virus and not protected by S-dC28. Lanes B and G, C and H, D and I, contain DNA from ATH8 cells pretreated and cultured with 1 micromole, 5 micromoles, and 7 micromoles S-dC28, respectively. Lanes E and J contain DNA from ATH8 cells treated with 50 micromoles 2',3'-dideoxyadenonsine, and lane K contains DNA from ATH8 cells that was not exposed to the virus.

[4] = test system: T4 molecule in T4 cells (H9 cells); assay: HIV binding to T4 molecule in H9 cells (radiolabelled virus)
Procedure: (§1) The possibility that the S-ODN analogs may interfere with HIV binding to target cells was tested.

p24 gag protein of HIV = assay: HIV gag protein expression in chronically HIV-infected H9 cells (indirect immunofluorescence); type: cell-based; conditions: up to 25 micromoles, 120 hours
Procedure: The percentage of cells expressing p24 gag protein of HIV was determined by indirect immunofluorescence microscopy by using anti-HIV p24 murine monoclonal antibody.
Generally, it has been assumed that anti-sense sequences inhibit the expression of various genes by translation arrest, i.e. that they bind to mRNA and block its translation. In order to test this possibility, gag protein synthesis was analyzed in chronically HIV-infected and -producing H9 cells by indirect immunofluorescent assay under a microscope. […] Alternatively, the level of any translation arrest could have been below the threshold of detection by indirect immunofluorescent assay under a microscope. […] Therefore, one mechanism for the antiviral effect could depend on blocking viral replication perhaps prior to, or at the stage of, pro-viral DNA synthesis.

S1 nuclease = assay: Nuclease susceptibility, S1 nuclease; type: in vitro ADME
Source text: (§2) Several oligodeoxynucleotides were studied with regard to DNase sensitivity, cf. Table 5. These include cytidine homopolymers, ODN-4 (an anti-message 38-mer complementary to the 3' region of the art/trs region of HIV BH10 clone), and myc-1 (a 15-mer complementary to the initiation codon region of the C-myc oncogene). The DNases employed were predominantly endonuclease S1, the exo- and endonuclease P1, and snake venom (SV) phosphodiesterase. The concentration of S1 nuclease was ten-fold higher ([…]) for reactions of olifo-dC, since both the normal and PS analog were degraded extremely slowly be this enzyme. S1 and P1 nuclease digestion proceeded at 2-45 times more slowly for the S-ODNs than for the normal oligomers, with the […] being somewhat more readily digested than the 28-mer.

[5] = test system: T4, HLA-DR, T8, T3, or Tac antigen on ATH8 cells; assay: Surface antigens of ATH8 cells by fluorescent-activated cytofluorometry; type: cell-based; conditions: i micromole, sixteen hours
Procedure: as §1

P1 nuclease = assay: Nuclease susceptibility, P1 nuclease; type: in vitro ADME
Source text: as §2

Solubility = type: physicochemical; conditions: acetate salts
Source text: Oligodeoxynucleotides with blocks of phosphorothioates at the 3' or 5' ends were synthesized by automatically changing the oxidation cycle at the required point. […] Introduction of a small amount of ammonia vapor, not aqueous ammonia, by a Pasteur pipette solubilized all the solids. The yield determined from absorbance at lambda max was about 30%.

HL60 cells [6] = assay: Inhibition of HL60 cell proliferation (cell count); type: cell-based
HL60 cells [7] = assay: DNA synthesis in HL60 cells (3H-thymidine incorporation); type: cell-based; conditions: FIG. 4, 50 uM, day 1
Procedure: To obtain the results shown in FIG. 4, nonsense or antisense S-ODNs were added at a final concentration of 50 uM on day 0 to cells seeded at 3×10^5/ml. DNA synthesis was determined on day 1 by incubating cells with 1 uCi 3H-thymidine for 4 hours, after which time 10% trichloroacetic acid was added and acid precipitatable radioactivity was trapped on Whatman glass fiber filters. The filters were subjected to liquid scintillation counting to determine levels of radioactivity.

## dAACGTTGAGGGGCAT [O-myc-1, reference compound]
Stability in human serum
  half-life in 50% human serum: two to three

## d-(Ts Cs Gs Ts Cs Gs Cs Ts Gs Ts Cs Ts Cs C) [S-ODN-1]
[1]; 10 days
  phosphorothioate bonds intact: still intact after 10 days
[1]; a week
  degradation: no significant degradation even after a week
[1]; after 10 days
  decomposition based on the total signal intensity: less than 5%
[2]
  anti-HIV activity / protection against cytopathic effect: substantial activity against HIV; also recorded: protected against HIV

## Nc1ccn([C@H]2CC[C@@H](CO)O2)c(=O)n1 [2',3'-dideoxycytidine, reference compound]
[2]; 0.5 micromoles
  protection against the virus: complete antiviral activity

## (dC)n n = 14 [S-dC14]
[2]; 5 micromoles
  protection against the virus: only a moderate effect
[2]
  anti-HIV activity / protection against cytopathic effect: the most potent antiviral compound among those tested
[2]; listed as 14-mer oligo-dC
  anti-HIV activity / protection against cytopathic effect: substantial protection against HIV cytopathic effect
gamma-interferon
  induction of gamma-interferon: No induction of gamma-interferon

## d-(Gs Gs As Gs As Cs As Gs Cs Gs As Cs Gs A) [S-ODN-2]
[2]
  anti-HIV activity / protection against cytopathic effect: protected against HIV

## Nc1ncnc2c1ncn2[C@H]1CC[C@@H](CO)O1 [2',3'-dideoxyadenosine, reference compound]
[3]; 50 micromoles (lanes E, J), days 4 and 7
  2.7 Kb env-containing internal KPN I fragment of virus genome: detected only in lanes A and F
[3]; Human immunodeficiency virus 1, ATH-8, Southern blot, days 4 and 7, read-out: lowest concentration significantly inhibiting de novo synthesis of viral DNA
  minimal effective concentration: 1 µM

## (dC)n n = 28 [S-dC28]
[4]
  inhibition of HIV binding to T4 molecule: No inhibition
p24 gag protein of HIV
  gag protein positivity: failed to reduce gag protein positivity; also recorded: did not inhibit gag protein positivity
S1 nuclease; oligo-dC, ten-fold higher S1 concentration
  Ratio t1/2 PSoligo/t1/2 POoligo: 2
[5]
  changes in T4, HLA-DR, T8, T3, or Tac antigen: no detectable changes
P1 nuclease
  Ratio t1/2 PSoligo/t1/2 POoligo: 15
Solubility
  solubility in 1M NaCl: extremely insoluble in 1M NaCl
[2]; 0.5 micromoles
  protection against the virus: complete protection against the virus; also recorded: complete antiviral activity
[2]; 3 micromoles
  inhibition of viral replication and protection of ATH8 cells: 100%
[2]
  anti-HIV activity / protection against cytopathic effect: the most consistent and durable antiviral effects; also recorded: one of the most potent analogs tested
[2]; in vitro
  therapeutic index (ratio of cytotoxic to effective concentration): comparable in vitro index to those of dideoxycytidine and dideoxyadenosine
[3]; 1, 5 and 7 micromoles S-dC28 (lanes B-D, G-I), days 4 and 7
  2.7 Kb env-containing internal KPN I fragment of virus genome: detected only in lanes A and F
[3]; Southern blot
  lowest concentration with complete inhibition of de novo synthesis of HIV DNA: 1 µmol
[3]; Southern blot, days 4 and 7
  lowest concentration significantly inhibiting de novo synthesis of viral DNA: 1 µM

## dAACGTTGAGGGGCAT [S-myc-1]
S1 nuclease; ODN-4 and myc-1
  Ratio t1/2 PSoligo/t1/2 POoligo: 9
HL60 cells [6]; 0.1 micro M, FIG. 3
  effect on cell proliferation: effective
HL60 cells [6]; HL60 cells
  concentration relative to that required for the normal oligomer: less than 1%
HL60 cells [6]; HL60 cells, listed as anti-sense sequence
  inhibition of cell proliferation (cell count): significant inhibition of cell proliferation
HL60 cells [6]; HL60 cells, listed as phosphorothioate oligodeoxynucleotide analogs of the same anti-sense sequence
  inhibition of cell proliferation (cell count): inhibit proliferation of HL60 cells
P1 nuclease
  Ratio t1/2 PSoligo/t1/2 POoligo: 4
HL60 cells [7]
  inhibition of cell proliferation (3H-thymidine incorporation): significant inhibition of cell proliferation

## nonsense S-ODN: 5'-CTG AAG TGG CAT GAG; non-sense, same composition as anti-sense but in random sequence (dC*dT*dG*dA*dA*dG*dT*dG*dG*dC*dA*dT*dG*dA*dG) [reference compound]
HL60 cells [6]; HL60 cells
  inhibition of cell proliferation (cell count): not all nonsense S-ODN concentrations affected cell proliferation
HL60 cells [6]; HL60 cells, listed as non-sense sequence
  inhibition of cell proliferation (cell count): none of the controls used, namely, the non-sense sequence, has shown similar activity

B1: recombinant gamma-interferon: recombinant gamma-interferon (protein, UniProt P01579 24-161, looked up)
Interferon gamma: QDPYVKEAENLKKYFNAGHSDVADNGTLFLGILKNWKEESDRKIMQSQIVSFYFKLFKNFKDDQSIQKSVETIKEDMNVKFFNSNKKKRDDFEKLTNYSVTDLNVQRKAIHELIQVMAELSPAAKTGKRKRSQMLFRG
[2]; 1000 units added directly to cultures
  inhibition of cytopathic effect: did not inhibit the cytopathic effect
